Results: patent publication US20250136543A1, “8-[(2-HYDROXYNAPHTHALEN-1-YL)DIAZENYL]NAPHTHALENE-1,3-DISULFONIC ACID AS AN ANTIOXIDANT COMPOUND” (KING FAISAL UNIVERSITY, priority 2023, published 2025)

Assay: DPPH radical scavenging antioxidant test
Type: biochemical
Conditions: 517 nm; for Inhibition (radical scavenging inhibition): 0.2 mL DPPH (0.75 mM), compound 3 μM in ethanol, 30 min incubation in the dark
Experimental: The antioxidant properties of the 8-[(2-hydroxynaphthalen-1-yl)diazenyl]naphthalene-1,3-disulfonic acid were studied by adding 0.2 mL DPPH (0.75 mM)) to compound 8-[(2-hydroxynaphthalen-1-yl)diazenyl]naphthalene-1,3-disulfonic acid (III) (3 μM) in ethanol. After 30 min of incubation in the dark, the absorbance was read against a blank at 517 nm. Ascorbic acid (vitamin C) was used as standard antioxidants (positive control). A blank sample was prepared by 0.2 ml of DPPH in 3 ml ethanol. A negative control sample was run using ethanol instead of the sample. The radical scavenging inhibition was calculated using the following equation: […]
The antioxidant activity for the synthesized compound is listed in Table 1, using Vitamin C as a reference.

Row | Structure (SMILES) | Inhibition (radical scavenging inhibition) | antioxidant potential compared to vitamin C (DPPH in vitro test, vitamin C as positive control)
1 | O=S(=O)(O)c1cc(S(=O)(=O)O)c2c(/N=N/c3c(O)ccc4ccccc34)cccc2c1 [Product III, 8-[(2-hydroxynaphthalen-1-yl)diazenyl]naphthalene-1,3-disulfonic acid] | 54% | high potential as an antioxidant compared to vitamin C
2 | O=C1O[C@H]([C@@H](O)CO)C(O)=C1O [vit c, Ascorbic acid, reference compound] | 74% | 
